{"source": "patent US11491091B2", "about": "“Cooling product” (SYMRISE AG, priority 2010, dated 2022)", "test_system": "skin of test persons", "experiment": "Cooling effect on the skin as perceived by test persons (panel test)", "assay_type": "in vivo", "settings": "in each formulation the proportion of 1,2-pentanediol replaced with 1,2-hexanediol at a ratio of 5:3", "from_the_text": "In case of doubt, the perceptibility of the cooling effect is to be determined by means of a panel test wherein the corresponding mixture is applied onto the skin of at least 10 test persons. If in the course of this, preferably in combination with a blind test, 90% of the test persons confirm a cooling effect, then this will preferably correspond to the criteria for the presence of a corresponding effect. Topical applications in terms of the present text are applications where the corresponding active substance or the combination of active substances is brought into contact with the skin or with a mucous membrane. It is especially preferred that the evaluation of a cooling effect and its enhancement is made analog to the application example presented below. […] Provided the corresponding formulations also contained trans-4-tert. butylcyclohexanol, the cooling effect was even further enhanced compared to formulations without this compound.", "data": [{"smiles": "CCCCC(O)CO", "note": "(stereo not shown) [1,2-hexanediol]", "values": [{"measurement": "cooling effect enhancement after replacement of 1,2-pentanediol", "value": "comparable effects are achieved"}]}]}
